Entries after “also recorded” stand apart in the source; their conditions may differ.
What was measured:
[1] = Body weight / tolerability in treated Ercc1-/Δ mice; format: in vivo, mouse; conditions: FIG. 11A-B; weight versus time
Procedure: FIG. 11A-B. Weights as a function of age of (A) male and (B) female Ercc1^−/Δ mice either treated with XJB-5-131 or vehicle (sunflower seed oil) according to the protocol shown in FIG. 7.
(§1) To assess the effectiveness of XJB-5-131 in inhibiting degeneration and/or signs of aging and age-related degenerative diseases, the compound was administered, over a 18-21 week period, to progeroid Ercc1^−/Δ mice, at a dose of 2 mg/kg in sunflower seed oil carrier (to promote solubility) administered intraperitoneally three times per week (FIG. 7). Sunflower seed oil was administered to twin Ercc1^−/Δ mice according to the same schedule as a control. The treated and control mice were monitored twice a week for weight and symptom/sign development.
(§2) To assess the impact of XJB-5-131 at a cellular level, a number of experiments were carried out using mouse embryonic fibroblasts (“MEF”) cells harvested from Ercc1^−/− mouse embryos.

R6/2 mice = assay: Rotarod motor co-ordination in Huntington's disease model; format: in vivo, mouse; conditions: 2 mg/kg i.p. three times per week from 5 weeks of age; at 6 and 7 weeks of age; vs untreated mutant animals
Procedure: FIG. 19. XJB-5-131 preserved motor function in a mouse model of Huntington's disease. Five R6/2 mice, which model Huntington's disease, were treated three times per week with 2 mg/kg XJB-5-131 beginning at 5 weeks of life according to the scheme in FIG. 7. Motor function was assessed weekly by measuring the time animals were able to remain balanced on a rotarod, according to standard methods.
Huntington's disease is a fatal autosomal dominant neurodegenerative disease. The prevalence of Huntington's disease is four to seven in 100 000 and it typically develops in mid-life. The symptoms involve psychiatric, motor and cognitive disturbances, and weight loss. […] Mutant huntingtin forms insoluble aggregates that accumulate in the cytoplasm and nucleus of cells, disrupting neuron function. R6/2 mice express exon 1 of the human huntingtin gene, containing 150 CAG repeats. Consequently, the mice develop neurological symptoms that resemble many of those seen in Huntington's disease, including deficits of motor co-ordination, altered locomotor activity, impaired cognitive performance and seizures. Symptoms begin by week 3-4 and are progressive. […] Motor co-ordination was measured using a rotarod, after the mice were conditioned to the apparatus.

Solubility (statement) = format: physicochemical
Text: Compounds as set forth herein may be administered in a suitable pharmaceutical carrier (e.g. sterile water, normal saline, phosphate buffered saline, etc.). Not by way of limitation, inhibitors may be administered as a solution, as a suspension, in solid form, in a sustained release formulation, in a topical cream formulation, etc. In particular non-limiting examples, an inhibitor may be incorporated into a microcapsule, nanoparticle or liposome.

[2] = test system: primary MEF from Ercc1^−/− mouse embryos; assay: p16 immunofluorescence (irreversible cellular senescence) in MEF; format: cell-based; conditions: 1 μM, 48 hours, 20% oxygen; vs untreated cells
Procedure: FIG. 17. Levels of p16, a marker of irreversible cellular senescence, in MEF cells prepared from Ercc1^−/− mice, where the MEF cells were either treated with JP4-039 (10 μM dissolved in media) or media alone for 48 hours prior to fixing and immunostaining of cells.
To test the protective activity of JP4-039, cultures of primary MEF were prepared from Ercc1^−/− mouse embryos and grown under 20% oxygen (ambient air), which creates oxidative stress in these cells that are hypersensitive to the reactive oxygen species. The cells were then either treated with a concentration of 1 μM of XJB-5-131, JP4-039, JED-E71-37 or JED-E71-58, or left untreated, and then after 48 hours the level of p16, a marker of irreversible cellular senescence, was measured by immunofluorescence staining. […] Furthermore, in vivo, JP4-039 reversed epidermal atrophy, by increasing proliferation of keratinocytes (FIG. 10D). Thus JP4-039 was efficacious in vitro and in vivo for reducing/reversing age-related degenerative changes.

Ercc1^−/Δ mice = assay: Healthspan of progeroid Ercc1-/Δ mice treated with compound vs sibling given vehicle; format: in vivo, mouse
Text: FIG. 7. Experimental system for determining the impact of a therapeutic compound on the healthspan of Ercc1^−/Δ mice with accelerated aging. Transgenic mice or mutant animals were born from heterozygous crossings. Only litters with two Ercc1^−/Δ mice were enrolled in the study so that siblings could be used to assess the effect of a therapeutic compound, XJB-5-131 vs. vehicle in a pair-wise comparison. Treatments were initiated before the mice became symptomatic. The age at onset of progeroid symptoms were measured biweekly by an investigator blinded to the treatment of the mice.
as §1

[3] = test system: MEF cells harvested from Ercc1^−/− mouse embryos; assay: SA-β galactosidase staining (cellular senescence) in MEF; format: cell-based; conditions: 500 nM in media, ambient oxygen, 48 hours; vs media only
Procedure: FIG. 12. SA-β galactosidase (a marker of cellular senescence) staining in mouse embryonic fibroblast (“MEF”) cells prepared from Ercc1^−/− mice, where the MEF cells were either treated with XJB-5-131 ([…]) or media alone continuously for 48 hours prior to fixing and staining the cells.
as §2

[4] = test system: MEF cells prepared from Ercc1^−/− mice; assay: Apoptosis in MEF cells; format: cell-based, mouse; conditions: 500 nM in media, 48 hours; vs media alone
Procedure: FIG. 14. Apoptosis in MEF cells prepared from Ercc1^−/− mice, where the MEF cells were either treated with XJB-5-131 (500 nM dissolved in media) or media alone continuously for 48 hours prior to fixing and staining the cells.
as §2

[5] = test system: Ercc1^−/cond; K14-Cre mice; assay: UV-induced photoaging / sunburn of skin, topical cream; format: in vivo, mouse
Procedure: FIG. 10A-D. (A) Effects of (photo)aging in Ercc1^−/Δ mice either treated with XJB-5-131 (80 μg emulsified in a topical cream) or cream only according to the protocol shown in FIG. 7. The duration of treatment of mice in this figure was daily for five days post-UV irradiation. (B) Compounds as disclosed herein protect skin from photoaging by improving keratin production. Skin of Ercc1^−/cond; K14-Cre mice (missing ERCC1-XPF expression only in the skin) were treated with 20 J/m2 (half of the minimal erythemal dose) five times per week for 10 weeks to induce photoaging of the skin. Immediately after UV exposure, XJB-5-131 was applied (80 μg in 50 μL of cream) using a cotton applicator. Twenty-four hours after the last treatment, mice were euthanized and skin harvested for histopathologic examination. Skin sections were immunostained for keratin (red), DNA to reveal nuclei (blue) and actin (green). (C) Compounds as disclosed herein protect skin from inflammation in response to ultraviolet radiation. Skin of Ercc 1^−/cond; K14-Cre mice (missing ERCC1-XPF expression only in the skin) were treated with 500 J/m2 (12.5× the minimal erythemal dose) to induce erythema. Immediately after UV exposure, XJB-5-131 was applied (80 μg in 50 μL of cream) using a cotton applicator. Twenty-four hours after treatment, mice were euthanized and skin harvested for histopathologic examination. Skin sections were immunostained for keratin (red), DNA to reveal nuclei (blue) and actin (green). The thickness of the epidermal layer (indicated by the white bracket) is less in mice treated with XJB-5-131 than in mice treated with cream alone. (D) Compounds as disclosed herein reduce epidermal atrophy. Old (>24 months) normal mice were shaved and their skin treated with JP4-039 (450 μg in 50 μL of cream) or vehicle (cream) only five times per week for 10 weeks. Twenty-four hours after the last treatment, mice were euthanized and skin harvested for histopathologic examination. Skin sections were stained for DNA to reveal nuclei (blue) and actin (green).
As a measure of the effect of XJB-5-131 on photoaging or sun-induced skin changes, treated and control Ercc1^−/cond. K 14-Cre mice, which are missing ERCC1 only in the skin, were shaved, treated with a depilatory, then irradiated with UV-B light to induce sunburn (500 J/m2, the […] erythemal dose). Subsequently, the mice were treated with XJB-5-131 (80 μg) emulsified in a cream daily for five days.

Ercc1^−/− primary MEF = assay: γH2AX immunostaining of oxidatively stressed primary MEF; format: cell-based, mouse; conditions: 20% oxygen
Procedure: FIG. 13A-B. γH2AX immunostaining of Ercc1^−/− primary MEF grown at 20% oxygen to induce oxidative stress. Phosphorylated H2AX (γH2AX is a marker of cellular senescence and DNA damage. The MEF cells were either treated with XJB-5-131 (A) or E71-58 (B), fewer cells stained positively for γH2AX.
as §2
Next, the abilities of these two compounds, as well as XJB-5-131 and JP4-039, each at a concentration of 1 μM, were tested for their ability to prevent cellular senescence in cell cultures prepared, and oxidatively stressed, as in the preceding paragraph. Treated as well as untreated cells were, after 48 hours, immunostained for γ-H2AX, a marker of DNA double-strand breaks as well as cellular senescence.

[6] = acute or chronic photoaging, 80 μg in 50 μL of cream

Row | Compound | weight loss as a result of treatment [1] | motor co-ordination (time on rotarod) (R6/2 mice) | solubility (Solubility (statement)) | level of p16 [2] | overall aging score (relative age at onset of progeroid symptoms vs sibling on oil) (Ercc1^−/Δ mice; 2 mg/kg i.p. in sunflower seed oil, three times per week, 18-21 weeks) | onset of progeroid symptoms and aging pathologies (Ercc1^−/Δ mice; 2 mg/kg i.p. three times per week) | symptoms of accelerated aging marked with asterisk (dystonia, ataxia, muscle wasting, decreased spontaneous activity or lethargy), age at onset (Ercc1^−/Δ mice; FIG. 8, vs vehicle only) | neurodegeneration and muscle wasting in twin mice (Ercc1^−/Δ mice; FIG. 9A, three times per week from 5 weeks of age, vs sibling on vehicle) | general appearance of twin mice (Ercc1^−/Δ mice; FIG. 9A, vs sibling on vehicle) | glycosaminoglycan in intervertebral discs, more relative to control mice (Ercc1^−/Δ mice; FIG. 9B, vs sunflower seed oil) | neurodegeneration in brain/cerebellum (GFAP immunostaining) (Ercc1^−/Δ mice; FIG. 9C, vs siblings on vehicle only) | insulin-producing β-islet cells in pancreas (Ercc1^−/Δ mice; FIG. 9D, H&E sections) | amount of SA-β galactosidase staining [3] | amount of apoptosis [4] | thickness of the epidermal layer after UV ([5]; 500 J/m2, 80 μg in 50 μL of cream, 24 h, vs cream alone) | skin appearance after UV-B sunburn ([5]; 500 J/m2 UV-B, 80 μg in cream daily for five days, vs cream only) | inflammation of skin after UV [5, 6] | keratin in skin sections (immunofluorescence) [5, 6] | γ-H2AX immunostaining (prevention of cellular senescence) (Ercc1^−/− primary MEF; 1 μM, 48 hours, vs untreated) | γH2AX foci / cells staining positively for γH2AX (Ercc1^−/− primary MEF; FIG. 13, concentration not stated)
1 | CC1(C)CCCC(C)(C)N1[O] [TEMPO, 2,2,6,6-tetramethylpiperidine-N-oxyl, reference compound] | cause weight loss | – | – | – | – | – | – | – | – | – | – | – | – | – | – | – | – | – | – | –
2 | CC(C)C[C@@H](/C=C/[C@H](Cc1ccccc1)C(=O)N1CCC[C@H]1C(=O)N[C@H](C(=O)N[C@@H](CCCNC(=O)OCc1ccccc1)C(=O)NC1CC(C)(C)N([O])C(C)(C)C1)C(C)C)NC(=O)OC(C)(C)C [XJB-5-131] | did not cause weight loss | significantly better | sparingly soluble | less effective | significantly improved | delayed the onset | significantly delayed | reduced and less | improved | approximately 30% | significantly reduced; also recorded: Decreased | preserved; also recorded: Preservation | notably less | did not reduce | less | much more smooth and healthy | reduced | improved | less effective | reduce; also recorded: fewer

— patent US8937086B2, “Compounds for the treatment of pathologies associated with aging and degenerative disorders” (University of Pittsburgh—Of the Commonwealth System of …, priority 2008, dated 2015)
